Measurements: ChEMBL document CHEMBL1201862, “PubChem BioAssay data set” (2004)
Activity calls are given as the source filed them.

Legend:
[1] = HGIII-sPLA2 enzyme inhibition potency – biochemical, QFRET, IC50, dose response (AID 743457);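 further: green fluorescence rise as the enzyme cleaves BODIPY PC-A2 in liposomes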
Cytochrome P450 2D6 = Cytochrome P450 2D6 (Homo sapiens, UniProt P10635);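 further: CYP2D6 member of a cytochrome P450 panel assay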
Cytochrome P450 3A4 = Cytochrome P450 3A4 (Homo sapiens, UniProt P08684);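 further: CYP3A4 tested as one member of a cytochrome P450 panel screen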
Cytochrome P450 2C9 = Cytochrome P450 2C9 (Homo sapiens, UniProt P11712)
[2] = target: Photoreceptor-specific nuclear receptor (Homo sapiens, UniProt Q9Y5X4); type: functional, cell-based;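 further: CHO-S cells with Gal4-NCOR and VP16-NR2E3 two-hybrid luciferase reporter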
[3] = target: T1, Methionyl-tRNA synthetase, putative (Trypanosoma brucei brucei, UniProt Q38C91); type: functional, Trypanosoma brucei brucei strain 927/4 GUTat10.1
T1 sequence (Q38C91 whole entry): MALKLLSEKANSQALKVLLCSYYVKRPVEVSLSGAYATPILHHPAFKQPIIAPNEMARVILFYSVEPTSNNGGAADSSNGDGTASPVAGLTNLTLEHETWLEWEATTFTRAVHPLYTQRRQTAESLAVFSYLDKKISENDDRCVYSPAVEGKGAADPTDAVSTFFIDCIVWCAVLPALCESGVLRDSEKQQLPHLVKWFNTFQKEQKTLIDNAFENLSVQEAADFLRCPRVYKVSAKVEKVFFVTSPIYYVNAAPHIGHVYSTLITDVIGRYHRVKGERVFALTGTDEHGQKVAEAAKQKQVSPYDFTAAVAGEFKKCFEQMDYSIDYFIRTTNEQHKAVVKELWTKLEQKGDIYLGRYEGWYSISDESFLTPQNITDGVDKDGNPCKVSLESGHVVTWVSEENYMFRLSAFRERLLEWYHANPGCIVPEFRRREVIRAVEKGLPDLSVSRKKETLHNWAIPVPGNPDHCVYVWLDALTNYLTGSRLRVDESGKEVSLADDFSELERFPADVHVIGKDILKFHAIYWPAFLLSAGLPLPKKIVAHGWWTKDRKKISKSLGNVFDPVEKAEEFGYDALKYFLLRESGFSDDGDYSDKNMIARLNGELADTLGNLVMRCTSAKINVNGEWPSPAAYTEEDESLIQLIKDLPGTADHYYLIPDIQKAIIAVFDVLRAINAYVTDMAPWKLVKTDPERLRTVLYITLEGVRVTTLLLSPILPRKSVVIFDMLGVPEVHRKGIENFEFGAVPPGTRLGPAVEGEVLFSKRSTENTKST

[4] = Counterscreen for inhibitors of Trypanosoma brucei methionyl tRNA synthetase (MetRS): Luminescence-based cell-based high throughput dose response assay to identify compounds that are cytotoxic to Jurkat human T lymphocyte cells.; type: functional
[5] = target: T1, Methionyl-tRNA synthetase, putative; type: functional, Trypanosoma brucei brucei strain 927/4 GUTat10.1; remark: listed apart in the source
[6] = target: SWI/SNF-related matrix-associated actin-dependent regulator of chromatin subfamily A member 2 (Homo sapiens, UniProt P51531); experiment: Luminescence-based cell-based high throughput dose response assay to identify activators of the function of SWI/SNF related, matrix associated, actin dependent regulator of chromatin, subfamily a, member 2 (SMARCA2, BRM).; type: functional
[7] = Counterscreen for activators of the function of SWI/SNF related, matrix associated, actin dependent regulator of chromatin, subfamily a, member 2 (SMARCA2, BRM): Luminescence-based cell-based high throughput dose response assay to identify non-selective compounds using the VP16 reporter assay.; type: functional
Major prion protein = Major prion protein (Homo sapiens, UniProt P04156); type: functional, cell-based
[8] = viability of PTEN-deleted HCT116 cells – cell-based, HCT116 PTEN knockout, dose response (AID 1047); type: functional;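 further: HCT116 colon tumor cells with PTEN knocked out; cells exposed to compound for 60 hours before readout; potency for loss of cell viability measured by luminescence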
[9] = viability of HCT116 lacking mutant beta-catenin – cell-based, human colon tumor, dose response (AID 1045); type: functional;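 further: HCT116 colon tumor cells with beta catenin knocked out; cells exposed to compound for 60 hours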
[10] = Luminescence Cell-Based Dose Retest to Confirm Inhibitors of Cancer Stem Cells. [Related pubchem assays (depositor defined):AID2717, AID2721]; type: functional; details: Homo sapiens
[11] = viability loss of HMLE_sh_eGFP cells – cell-based, luminescence, counter-screen for HMLE_sh_ECad selective toxicity project, dose response (AID 463074); type: functional, Homo sapiens;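 further: HMLE human mammary epithelial cells expressing control shRNA against eGFP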
Vero = experiment: cells; type: functional; details: Chlorocebus sabaeus
[12] = target: Matrix metalloproteinase-14 (Homo sapiens, UniProt P50281); experiment: Dose Response confirmation of uHTS hits for a small molecule inhibitors of MT1-MMP activation in a fluorescence assay set 1.; type: functional
[13] = viability of uninfected HEp-2 cells – cell-based, HTS, cytotoxicity control for RSV inhibitor project, dose response (AID 2410); type: functional; details: human respiratory syncytial virus
[14] = target: T2, Microphthalmia-associated transcription factor (Homo sapiens, UniProt O75030); experiment: reducers of TRPM1 reporter luminescence, concentration series – cell-based, SK-MEL-5, cherry-picked, set 3, MITF inhibitor project, dose response (AID 493073); type: functional;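 further: SK-MEL-5 melanoma cells with luciferase driven by the MITF target TRPM1 promoter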
T2 sequence (O75030 whole entry): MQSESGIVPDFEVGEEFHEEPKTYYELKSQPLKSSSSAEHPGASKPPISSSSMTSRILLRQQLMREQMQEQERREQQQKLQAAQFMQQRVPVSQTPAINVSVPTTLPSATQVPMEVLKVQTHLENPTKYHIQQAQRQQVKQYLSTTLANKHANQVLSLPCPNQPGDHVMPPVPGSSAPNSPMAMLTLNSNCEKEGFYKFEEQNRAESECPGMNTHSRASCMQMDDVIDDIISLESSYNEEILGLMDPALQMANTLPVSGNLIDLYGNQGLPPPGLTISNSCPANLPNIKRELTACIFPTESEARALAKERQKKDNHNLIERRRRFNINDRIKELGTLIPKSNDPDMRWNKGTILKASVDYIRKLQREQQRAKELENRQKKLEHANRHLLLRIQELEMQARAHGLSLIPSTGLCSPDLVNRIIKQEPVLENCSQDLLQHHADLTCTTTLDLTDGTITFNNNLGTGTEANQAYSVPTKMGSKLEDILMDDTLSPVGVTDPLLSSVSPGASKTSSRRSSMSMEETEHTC

Insulin-degrading enzyme [15] = target: T3, Insulin-degrading enzyme (Homo sapiens, UniProt P14735); experiment: recombinant IDE activation, cell-free – biochemical, fluorescence polarization, counter-screen for IDE activator project, dose response (AID 588681)
T3 sequence (P14735 whole entry): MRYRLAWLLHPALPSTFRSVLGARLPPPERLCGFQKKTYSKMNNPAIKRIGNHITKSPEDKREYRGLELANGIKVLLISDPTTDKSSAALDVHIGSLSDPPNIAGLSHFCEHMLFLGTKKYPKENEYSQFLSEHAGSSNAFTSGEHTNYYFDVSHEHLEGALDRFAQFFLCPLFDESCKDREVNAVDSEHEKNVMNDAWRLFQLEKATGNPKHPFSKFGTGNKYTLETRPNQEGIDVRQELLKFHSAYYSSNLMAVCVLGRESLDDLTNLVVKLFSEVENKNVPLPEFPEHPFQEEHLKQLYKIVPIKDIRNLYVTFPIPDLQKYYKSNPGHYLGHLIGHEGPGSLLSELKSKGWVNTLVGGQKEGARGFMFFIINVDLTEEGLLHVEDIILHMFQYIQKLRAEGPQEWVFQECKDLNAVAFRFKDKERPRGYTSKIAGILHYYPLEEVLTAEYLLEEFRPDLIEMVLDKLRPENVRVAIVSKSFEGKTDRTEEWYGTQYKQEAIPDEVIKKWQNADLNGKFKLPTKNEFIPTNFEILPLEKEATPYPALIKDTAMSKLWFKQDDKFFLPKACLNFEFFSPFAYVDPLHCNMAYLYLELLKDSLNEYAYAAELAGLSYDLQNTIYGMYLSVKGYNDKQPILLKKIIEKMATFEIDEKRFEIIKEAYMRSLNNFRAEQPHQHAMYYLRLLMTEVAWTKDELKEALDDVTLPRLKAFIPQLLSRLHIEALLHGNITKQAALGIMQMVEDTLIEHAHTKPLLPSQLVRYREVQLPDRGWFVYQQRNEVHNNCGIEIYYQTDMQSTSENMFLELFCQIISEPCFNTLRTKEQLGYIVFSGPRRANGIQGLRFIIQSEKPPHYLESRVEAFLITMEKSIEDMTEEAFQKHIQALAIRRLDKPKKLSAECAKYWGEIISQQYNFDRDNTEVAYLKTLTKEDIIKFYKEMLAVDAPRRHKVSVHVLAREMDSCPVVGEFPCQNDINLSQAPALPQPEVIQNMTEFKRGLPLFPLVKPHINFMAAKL

Insulin-degrading enzyme [16] = target: T3, Insulin-degrading enzyme; experiment: cellular IDE activation of Abeta substrate cleavage – fluorescence polarization, HEK cells, dose response (AID 588439); type: functional, cell-based
HEK293 [17] = experiment: membrane integrity loss in HEK cells – cell-based, fluorescence, cytotoxicity control for IDE activator project, dose response (AID 588440); type: functional; details: Homo sapiens;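 further: cytotoxicity by LDH release measuring loss of membrane integrity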
HEK293 [18] = experiment: optical interference in Abeta FP readout, dose response, artefact control for IDE activator project, biochemical, fluorescence polarization (AID 588442); type: functional, cell-based; details: Homo sapiens
A-375 = experiment: proliferation inhibition in MITF-low A375 cells – cell-based, cherry-pick samples, set 2, counter-screen for MITF modulator project, dose response (AID 540335); type: functional; details: Homo sapiens
Melanocortin receptor 4 = Melanocortin receptor 4 (Homo sapiens, UniProt P32245); type: functional, cell-based;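 further: Cell-based assay with luminescence read-out, confirmatory dose-response testing for agonist activity of biased ligands at MC4R; human U2OS cells with tagged receptor and beta-arrestin; potency of agonists that increase receptor coupling to beta-arrestin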
[19] = activation of miR-122 Renilla sensor silencing – cell-based, Huh7 psiCHECK-miR122, Renilla luciferase, cherry-picked, dose response (AID 651956); type: functional;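 further: huh7 hepatoma cells stably carrying a psiCHECK-2 miR-122 sensor plasmid; renilla luciferase signal reporting endogenous miR-122 activity after 48 h compound exposure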
[20] = target: T4, DNA repair protein RAD52 homolog (Homo sapiens, UniProt P43351); type: functional, biochemical
T4 sequence (P43351 whole entry): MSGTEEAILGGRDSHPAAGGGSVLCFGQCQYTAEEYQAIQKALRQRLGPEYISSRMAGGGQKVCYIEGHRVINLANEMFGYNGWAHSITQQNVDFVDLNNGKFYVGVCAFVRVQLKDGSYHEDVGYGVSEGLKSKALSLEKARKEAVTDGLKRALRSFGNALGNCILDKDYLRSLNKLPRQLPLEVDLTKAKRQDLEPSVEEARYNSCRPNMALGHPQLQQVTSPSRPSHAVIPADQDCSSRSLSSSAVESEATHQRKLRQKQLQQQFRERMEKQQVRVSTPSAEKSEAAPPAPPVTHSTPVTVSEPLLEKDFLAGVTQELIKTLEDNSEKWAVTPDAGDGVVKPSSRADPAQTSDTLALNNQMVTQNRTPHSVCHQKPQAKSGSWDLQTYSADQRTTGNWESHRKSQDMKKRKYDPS

[21] = general mammalian cell viability loss – inhibitor set, cherry-pick, set 2, cytotoxicity control for miR-122 modulator project, dose response (AID 720697); type: functional, cell-based
[22] = general mammalian cell viability loss – activator set, cherry-pick, cytotoxicity control for miR-122 modulator project, dose response (AID 720690); type: functional, cell-based;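 further: HEK293T human cells scored for general mammalian cytotoxicity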

S=C(Nc1ccccc1)Nc1nccs1
IC50 [1]: > 122 µM (inactive)
AC50 (Cytochrome P450 2D6): 31.6 µM (inconclusive)
AC50 (Cytochrome P450 3A4): 15.8 µM (inconclusive)
AC50 (Cytochrome P450 2C9): 20 µM (inconclusive)

Cc1cccc(OCCCC(=O)Nc2nc3ccccc3[nH]2)c1
IC50 [2]: 2.88 µM (active)
IC50 [3]: 39.5 µM (inactive)
IC50 [4]: 29.6 µM (inactive)
IC50 [5]: 4.34 µM (active)
EC50 [6]: > 91.1 µM (inactive)
EC50 [7]: > 91.1 µM (inactive)

CCOC(=O)CSc1nc(Cc2ccccc2)nc2ccccc12
IC50 (Major prion protein): 4.31 µM (active)
IC50 (cells): > 138 µM (inactive)

O=C(NNc1c2ccccc2nc2ccccc12)c1cc2ccccc2cc1O
EC50 [8]: 6.4 µM (active)
EC50 [9]: 7.12 µM (active)
AC50 [10]: 27 µM (active)
AC50 [11]: 28.2 µM (active)
CC50 (Vero): 2.61 µM (active)
IC50 [12]: 24.4 µM (inactive)

COc1cccc2sc(N(CCCN(C)C)C(=O)C(c3ccccc3)c3ccccc3)nc12
CC50 [13]: 13.6 µM (active)
AC50 [14]: 15.1 µM (active)
EC50 (Insulin-degrading enzyme [15]): > 54.7 µM (inactive)
EC50 (Insulin-degrading enzyme [16]): 15.1 µM (inactive)
IC50 (HEK293 [17]): 10.2 µM (inactive)
EC50 (HEK293 [18]): > 54.7 µM (inactive)
AC50 (A-375): 18.3 µM (active)
EC50 (Melanocortin receptor 4): > 89.2 µM (inactive)
AC50 [19]: 8.07 µM (active)
AC50 [20]: 13.3 µM (active)
AC50 [21]: 1.77 µM (active)
AC50 [22]: 16.2 µM (active)
